Where two headings read alike, the source gives them in different places.

In experiment [1] the test system is human stomach cancer cells MKN-74 cocultured with normal stromal cells derived from the human stomach, Hs738. Put plainly: Cell proliferation test, coculture test with normal stromal cells Hs738 (GFP fluorescence). It counts as cell-based. Here is the method: (§1) Human stomach cancer cells MKN-74 (Riken Cell Bank) were cultured at 37° C. and 5% CO2 in DMEM supplemented with 10% FBS (product of GIBCO Co.), 100 units/mL penicillin G (product of Invitrogen Co.), and 100 μg/mL streptomycin (product of Invitrogen Co.).
(§2) The above cancer cells were allowed to undergo gene transfer of Green fluorescence protein (GFP) expression vector, pEGFP-C1 (product of BD Biosciences Co.) using the Lipofectamine reagent (product of Invitrogen Co.), to thereby clone cells stably expressing GFP.
Normal stromal cells derived from the human stomach, Hs738 ((CRL-7869), ATCC) were cultured at 37° C. and 5% CO2 in DMEM supplemented with 10% FBS, 100 units/mL penicillin G (product of Invitrogen Co.), 100 μg/mL streptomycin (product of Invitrogen Co.), 5 μg/mL insulin, 5 μg/mL transferrin (product of Wako Pure Chemical Industries Co.), 1.4 μM hydrocortisone (product of Sigma Co.), and […] basic-FGF (product of Pepro Tech Co.).
The above normal stromal cells derived from the human stomach, Hs738 were dispersed at 5×10^4 cells/mL in DMEM containing 1% dialyzed serum, 5 μg/mL insulin, 5 μg/mL transferrine (product of Wako Pure Chemical Industries Co.), and 1.4 μM hydrocortisone (product of Sigma Co.), and were placed in a 96-well plate at 0.1 mL/well. Respective evaluation samples (the compounds expressed by Structural Formulas (1) to (13)) were added thereto at respective concentrations, followed by culturing at 37° C. and 5% CO2 for 2 days.
Next, the above human stomach cancer cells MKN-74 were dispersed in DMEM at 5×10^5 cells/mL, and were placed at 10 μL/well in the plate in which the above normal stromal cells derived from the human stomach, Hs738 had been cultured, followed by further coculturing at 37° C. and 5% CO2 for 3 days.
(§3) Measurement of cell proliferation rates in the above coculture test and monoculture test was performed in the following manner.
(§4) The medium was removed from the wells of the above plate, and a cytolysis liquid (10 mM Tris-HCl [pH 7.4], 150 mM NaCl, 0.9 mM CaCl2, and 1% Triton X-100) was added thereto at 0.1 mL/well to lyse the cells. The fluorescence intensity of GFP was measured at an excitation wavelength of 485 nm and a fluorescence wavelength of 538 nm, and the cell proliferation rates were calculated from the following formula. Cell proliferation rate (%)=(Fluorescence intensity in the presence of the evaluation sample/Fluorescence intensity in the absence of the evaluation sample)×100

In experiment [2] the test system is Haemophilus influenza T-196 strain. Put plainly: Measurement of MIC for Haemophilus influenza T-196. It counts as cell-based. To be noted: read-out: MIC Haemophilus influenzae T-196. Here is the method: Each of the above compounds was measured for minimum inhibitory concentration (MIC) for Haemophilus influenza.
Haemophilus influenza T-196 strain and H. influenza ARD476 strain each were statically cultured in a HI medium (Muller Hinton medium (product of Becton, Dickinson Co.) supplemented with 5% Fildes enrichment (product of Becton, Dickinson Co.)) at 37° C. overnight under aerobic conditions containing 5% carbon dioxide gas.
After completion of the culturing, the culture was suspended with the HI medium and diluted so that each Haemophilus influenza strain was 2×10^6 CFU/mL to 9×10^6 CFU/mL.
Each of the test samples (each of the above compounds, clarithromycin, and ampicillin) was prepared with the HI medium to have a concentration of 256 mg/L. From this concentration, the test sample was 2-fold diluted serially in 11 steps to 0.125 mg/L.
The above-diluted culture was added at 50 μL/well to 50 μL/well of the HI medium containing each of the test samples at the above concentrations, and was statically cultured for 18 hours at 37° C. under aerobic conditions containing 5% carbon dioxide gas.
After completion of the culturing, the presence or absence of proliferation of each bacterium was visually determined based on turbidity, and the MIC for each bacterial strain was obtained.

Experiment [3] concerns human stomach cancer cells MKN-74. Put plainly: Cell proliferation test, monoculture test (GFP fluorescence). The class given is cell-based. As to the method:
as §1, §2
Only DMEM containing 1% dialyzed serum, 5 μg/mL insulin, 5 μg/mL transferrine (product of Wako Pure Chemical Industries Co.), and 1.4 μM hydrocortisone (product of Sigma Co.) was placed in a 96-well plate at 0.1 mL/well, and respective evaluation samples (the compounds expressed by Structural Formulas (1) to (13)) were added thereto at respective concentrations, followed by maintaining at 37° C. and 5% CO2 for 2 days.
Next, the above human stomach cancer cells MKN-74 were dispersed in DMEM at 5×10^5 cells/mL, and were placed in the above plate at 10 μL/well, followed by further coculturing at 37° C. and 5% CO2 for 3 days.
as §3, §4

Experiment [4] shares this test system. The experiment can be described thus: Anti-cancer activity in vivo, Test Example 2-1: MKN-74 alone, subcutaneous tumor in nude mice. Details: species or system BALB/c nu/nu nude mice. To be noted: intravenous administration at 12.5 mg/kg, FIGS. 1A, 1B. As to the method: BALB/c nu/nu nude mice (female, 5 weeks old, product of Charles River Co.) were bred under the SPF conditions.
Cultured human stomach cancer cells MKN-74 were trypsinized, and the human stomach cancer cells MKN-74 (8×10^6 cells) peeled off from the culture dish were dispersed in 0.3 mL DMEM containing 10% FBS and mixed with 0.5 mL growth factor-reduced Matrigel (product of BD Biosciences Co.).
The above mixed cell liquid (0.1 mL) (cancer cells: 1×10^6 cells) was subcutaneously inoculated to the left groin region of the above mice.
The compound expressed by the Structural Formula (2) or the compound expressed by the Structural Formula (13) was intravenously administered for a predetermined period, and tumor formed under the skin was cut out and measured for weight. Note that, the administration dose of the compound expressed by the Structural Formula (2) or the compound expressed by the Structural Formula (13) was 12.5 mg/kg per administration day.
Also, a tumor volume was calculated from the following formula referring to the above NPL 1. Tumor volume (mm^3)=(major axis×minor axis^2)/2
Note that, as controls, those to which physiological saline (vehicle) was administered instead of the compound expressed by the Structural Formula (2) or the compound expressed by the Structural Formula (13) were tested in the same manner.

Where [5] appears, read: HI medium, 18 hours, 37° C., 5% carbon dioxide.
Setting [6] is: coculture test, MKN-74 with stromal cells Hs738, cell proliferation rate, average of duplicate, read-out: Cocul IC50.
Setting [7] is: monoculture test, MKN-74 alone, cell proliferation rate, average of duplicate, read-out: Mono IC50.

In general, IC50 refers to the concentration that gives 50% inhibition. Take `CCCCCCCc1c(C)c(=O)c2ccccc2n1CNC(=S)SC` [Structural Formula (12)]: the IC50 in experiment [1] (MKN-74, read-out: Cocul IC50) was determined as 2.91 µg/mL; in experiment [3] (MKN-74, read-out: Mono IC50), 39.5 µg/mL. In addition, in experiment [2] (setting [5]), the MIC is > 128 µg/mL.

Consider `CCCCCCCCc1c(C)c(=O)c2ccccc2n1CC(=O)O` [Structural Formula (6)], for which the IC50 in experiment [1] (setting [6]) came to 4.15 µg/mL; in experiment [3] (setting [7]) it was 71 µg/mL. Further, the MIC in experiment [2] (setting [5]) was determined as 128 µg/mL.

In the case of `CCCCCCCCc1nc2ccccc2c(OCC(=O)O)c1C` [Structural Formula (2)], the results for the IC50 in experiment [1] (setting [6]) and in experiment [3] (setting [7]) were 0.37 µg/mL and 2.95 µg/mL, respectively. Moreover, the MIC in experiment [2] (setting [5]) turned out to be 64 µg/mL. The “tumor suppression (tumor volume, tumor weight Day 21)” value in experiment [4] is “significant suppression”.

Turning to `CCCCCCCCc1c(C)c(=O)c2ccccc2n1CC(=O)OC` [Structural Formula (5)], the values for the IC50 in experiment [1] (setting [6]) and in experiment [3] (setting [7]) were 0.53 µg/mL and > 100 µg/mL, respectively. Further, the MIC in experiment [2] (setting [5]) is > 128 µg/mL.

Regarding `CCCCCCCc1c(C)c(=O)c2ccccc2n1CN=C(SC)SC` [Structural Formula (13)], the IC50 in experiment [1] (MKN-74, read-out: Cocul IC50) amounted to 0.78 µg/mL; in experiment [3] (MKN-74, read-out: Mono IC50), 1.36 µg/mL. Also, the MIC in experiment [2] (setting [5]) is > 128 µg/mL.

Turning to `Cc1c(CCCC/C=C/C(C)C)[nH]c2ccccc2c1=O` [Structural Formula (3)], the IC50 in experiment [1] (setting [6]) was 0.012 µg/mL; in experiment [3] (setting [7]), > 100 µg/mL. For the same compound, the MIC in experiment [2] (setting [5]) was > 128 µg/mL.

On to `Cc1c(CC(C)C)[nH]c2ccccc2c1=O` [Structural Formula (4)], for which the IC50 in experiment [1] (setting [6]) was 1.32 µg/mL; in experiment [3] (setting [7]) it was > 100 µg/mL. In addition, the MIC in experiment [2] (setting [5]) stood at 64 µg/mL.

With `CCCCCCCc1c(C)c(=O)c2ccccc2n1CN=C=S` [Structural Formula (11)], the IC50 in experiment [1] (setting [6]) amounted to 0.12 µg/mL; in experiment [3] (setting [7]) it was 89.5 µg/mL. Besides, the MIC in experiment [2] (18 h) was > 128 µg/mL.

These data come from patent US10202347B2, “Compound, production method therefor, and use of said compound” (MICROBIAL CHEMISTRY RESEARCH FOUNDATION, priority 2013, dated 2019).
